Where two headings read alike, the source gives them in different places.
Assays:
HIV-1 (IIIB isolate) = assay: HIV-1 inhibition (p24 antigen ELISA) in infected H9 lymphocytes; assay type: cell-based; conditions: Human immunodeficiency virus 1, IIIB, Lymphocyte, 96 h; H9 lymphocytes; p24 ELISA Day 4; average of at least two experiments; read-out: Anti-HIV Activity EC50
Protocol: (§1) Aliquot of this cell line were only used in experiments when in log-phase growth. Test samples were first dissolved in dimethyl sulfoxide. The following final drug concentrations were routinely used for screening: 100, 20, 4 and 0.8 μg/ml. For active agents, additional dilutions were prepared for subsequent testing so that an accurate EC50 value (defined below) could be achieved. […] The appropriate amount of virus for a multiplicity of infection (moi) between 0.1 and 0.01 Infectious Units/cell was added to the first aliquot of H9 cells. The other aliquot only received culture medium, and these mock-infected cells were used for toxicity determinations (IC50, defined below). After a 4 h incubation at 37° C. and 5% CO2, both cell populations were washed three times with fresh medium and then added to the appropriate wells of a 24 well-plate containing the various concentrations of the test drug or culture medium (positive infected control/negative drug control). In addition, AZT was also assayed during each experiment as a positive drug control. The plates were incubated at 37° C. and 5% CO2 for 4 days. Cell-free supernatants were collected on Day 4 for use in a p24 antigen ELISA assay. P24 antigen is a core protein of HIV and therefore is an indirect measure of virus present in the supernatants. Toxicity was determined by performing cell counts by a Coulter Counter on the mock-infected H9 cells which had either received culture medium (no toxicity), test sample, or AZT.
Compounds of the present invention were assayed for anti-HIV activity according to the following assay procedures. […] The cell lines were used in experiments only when in the logarithmic phase of growth, whereas uninfected peripheral blood mononuclear cells (PBMCs) were first stimulated with PHA (1 μg/mL) for three days. […] The cell lines and PBMCs were washed thoroughly to remove unadsorbed virions and resuspended at 4×10^5 cells/ml in complete medium or complete medium with 10% v/v interleukin 2 (IL-2) , respectively. One ml. aliquots were placed into wells of 24-well culture plates containing an equal volume of test compounds (diluted in the appropriate culture medium). The toxicity of each compound was assessed by determining the number of compound-exposed uninfected cells that remained after four days at 37° C. and 5% CO2. A p24 antigen ELISA assay was used to determine the level of virus released in the medium of the HIV-infected cultures. The p24 antigen assay used a HIV-1 anti-p24 specific monoclonal antibody as the capture antibody coated onto 96-well plates. […] P24 in the culture medium was quantitated against a standard curve containing known amounts of p24. The effective (EC50) and inhibitory (IC50) concentrations for anti-HIV activity and cytotoxicity, respectively, were determined.

[1] = Cytotoxicity: cell counts of mock-infected H9 cells; assay type: cell-based; conditions: human; toxic to 50% of mock-infected H9 cells; 4 days; average of at least two experiments; read-out: Cytotoxicity IC50
Protocol: as §1, with “The biological evaluation of HIV-1 inhibition was carried out according to established protocols, (Kashiwada, Y., et al., J Med Chem. 39:1016-1017 (1996); Hashimoto, F., et al., Bioorg. & Med Chem. 5:2133-2143 (1997)). The T cell line, H9, was maintained in continuous culture with complete medium (RPMI 1640 with 10% fetal calf serum supplemented with L-glutamine at 5% CO2 and 37° C.). Aliquot” for “Aliquot”, “achieved. As the test samples were being prepared, an aliquot of the H9 cell line was infected with HIV-1 (IIIB isolate) while another aliquot was mock-infected with complete medium.” for “achieved.”
Compounds of the present invention were assayed for anti-HIV activity according to the following assay procedures. The T cell line, H9, and the promonocytic cell line, U937, were maintained separately in continuous culture with complete medium (RPMI 1640 with 10% fetal calf serum) at 5% CO2 and 37° C. The cell lines were used in experiments only when in the logarithmic phase of growth, whereas uninfected peripheral blood mononuclear cells (PBMCs) were first stimulated with PHA (1 μg/mL) for three days. All cell targets were incubated with HIV-1 (IIIB isolate, TCID50 10^4 IU/ml, at a multiplicity of infection of […] IU/cell) for one hour at 37° C. and 5% CO2. The cell lines and PBMCs were washed thoroughly to remove unadsorbed virions and resuspended at 4×10^5 cells/ml in complete medium or complete medium with 10% v/v interleukin 2 (IL-2) , respectively. One ml. aliquots were placed into wells of 24-well culture plates containing an equal volume of test compounds (diluted in the appropriate culture medium). The toxicity of each compound was assessed by determining the number of compound-exposed uninfected cells that remained after four days at 37° C. and 5% CO2. A p24 antigen ELISA assay was used to determine the level of virus released in the medium of the HIV-infected cultures. The p24 antigen assay used a HIV-1 anti-p24 specific monoclonal antibody as the capture antibody coated onto 96-well plates. Following a sample incubation period, rabbit serum containing antibodies for HIV-1 p24 was used to tag any p24 captured onto the microtiterwell surface. Peroxidase conjugated goat anti-rabbit serum was then used to tag HIV-1 p24 specific rabbit antibodies that had complexed with captured p24. […] The cutoff for the p24 ELISA assay was 12.5 pg/ml. P24 in the culture medium was quantitated against a standard curve containing known amounts of p24. […]

HIV-1 = conditions: H9 lymphocyte cells, Fujioka et al. 1994, cited from earlier work
[2] = read-out: EC50, inhibitory activity against HIV-1 replication

| Structure (SMILES) | EC50 (HIV-1 (IIIB isolate)) [nM] | CC50 at 96 h [1] [nM] | EC50 (HIV-1; [2]) [nM] | T.I. (HIV-1) | EC50 (HIV-1; read-out: EC50, anti-HIV activity (unit inferred)) [nM] |
| --- | --- | --- | --- | --- | --- |
| C=C(C)[C@@H]1CC[C@]2(C(=O)O)CC[C@]3(C)[C@H](CC[C@@H]4[C@@]5(C)CC[C@H](O)C(C)(C)[C@@H]5CC[C@]43C)[C@@H]12 [Compound 1, betulinic acid, reference compound] | 1400 | 13000 | 1400 | – | – |
| CC(C)[C@@H]1CC[C@]2(C(=O)O)CC[C@]3(C)[C@H](CC[C@@H]4[C@@]5(C)CC[C@H](O)C(C)(C)[C@@H]5CC[C@]43C)[C@@H]12 [dihydrobetulinic acid] | – | – | – | 14 | 900 |
| CC(=O)[C@@H]1CC[C@]2(C(=O)O)CC[C@]3(C)[C@H](CC[C@@H]4[C@@]5(C)CC[C@H](O)C(C)(C)[C@@H]5CC[C@]43C)[C@@H]12 [platanic acid] | – | – | 6500 | 14 | – |
